In patent US20060223996A1, “IL-12 modulatory compounds” (Synta Pharmaceuticals Corp., priority 2004, published 2006) one finds IC50 data, which are given here for 24 compounds.

The test system of the experiment is IL-12. The experiment can be described thus: Human in vitro assay: inhibition of IL-12 production in IFNγ/LPS- or IFNγ/SAC-stimulated human PBMC or THP-1 cells (ELISA). The note with it: read-out: IC50 Range (representative in vitro IC50 data). It counts as cell-based. The text has this:
The biological activities of a heterocyclic compound can be evaluated by a number of cell-based assays. One of such assays can be conducted using cells from human peripheral blood mononuclear cells (PBMC) or human monocytic cell line (THP-1). The cells are stimulated with a combination of human interferon-γ (IFNγ) and lipopolysaccharide or a combination of IFNγ and Staphylococcus aureus Cowan I in the presence of a test compound. The level of inhibition of IL-12 production can be measured by determining the amount of p70 by using a sandwich ELISA assay with anti-human IL-12 antibodies. IC50 of the test compound can then be determined. Specifically, PBMC or THP-1 cells are incubated with the test compound. Cell viability was assessed using the bioreduction of MTS [3-(4,5-dimethylthiazol-2-yl)-5-(3-carboxymethoxyphenyl)-2-(4-sulfophenyl)-2H-tetrazolium](Promega, Madison, Wis.).
Human In Vitro Assay. Human PBMC were isolated by centrifugation using Ficoll-Paque (Pharmacia Biotech, Uppsala, Sweden) and prepared in RPMI medium supplemented with 10% fetal calf serum (FCS), 100 U/mL penicillin, and 100 μg/mL streptomycin. PBMC were plated in wells of a 96-well plate at a concentration of 5×10^5 cells/well, and primed by adding IFNγ (30 U/mL) for 22 h and stimulated by adding LPS (1 μg/mL), or by adding IFNγ (100 U/mL) and then stimulated by adding SAC (0.01%). A test pyrimidine compound was dissolved in DMSO, and added to wells of the 96-well plate. The final DMSO concentration was adjusted to 0.25% in all cultures, including the compound-free control. Human THP-1 cells were plated in wells, primed by adding IFNγ (100 U/mL) for 22 h and stimulated by adding SAC (0.025%) in the presence of different concentrations of the pyrimidine compound. Cell-free supernatants were taken 18 h later for measurement of cytokines. Cell viability was assessed using the bioreduction of MTS. Cell survival was estimated by determining the ratio of the absorbance in compound-treated groups versus compound-free control.
The supernatant was assayed for the amount of IL-12p40, IL-12p70, or IL-10 by using a sandwich ELISA with anti-human antibodies, i.e., a Human IL-12 p40 ELISA kit from R&D Systems (Berkeley, Calif.), and a Human IL-12 p70 or IL-10 ELISA kit from Endogen (Cambridge, Mass.). Assays were based on the manufacturer's instructions.
The biological activities of pyrimidine compounds were tested on human PBMC or THP-1 cells.

Usually IC50 stands for the concentration that gives 50% inhibition. In the case of `COCCN(C)c1cc(C(=O)Nc2cccc(C(=O)c3ccccc3)c2)nc(N2CCOCC2)n1` [Compound 232, 6-[(2-Methoxy-ethyl)-methyl-amino]-2-morpholin-4-yl-pyrimidine-4-carboxylic acid (3-benzoyl-phenyl)-amide], the IC50 was at least 1 µM. Consider `O=C(Nc1cc(OCCN2CCOCC2)nc(N2CCOCC2)n1)Nc1nnc(C2CC2)s1` [Compound 141, 1-(5-Cyclopropyl-[1,3,4]thiadiazol-2-yl)-3-[2-morpholin-4-yl-6-(2-morpholin-4-yl-ethoxy)-pyrimidin-4-yl]-urea], for which the 50% inhibitory concentration (IC50) was at least 1 µM. As for `Cc1cccc(NNC(=O)c2cc(OCCN3CCOCC3)nc(N3CCOCC3)c2)c1` [Compound 82, 2-Morpholin-4-yl-6-(2-morpholin-4-yl-ethoxy)-isonicotinic acid N′-m-tolyl-hydrazide], the IC50 was at least 1 µM.

Consider `COCCN(C)c1cc(C(=O)Nc2cccc(-c3cnc4ccccc4n3)c2)nc(N2CCOCC2)n1` [Compound 242, 6-[(2-Methoxy-ethyl)-methyl-amino]-2-morpholin-4-yl-pyrimidine-4-carboxylic acid (3-quinoxalin-2-yl-phenyl)-amide], for which the IC50 is at least 1 µM. Turning to `Cc1[nH]c2c(NC(=O)c3cc(OCCN4CCOCC4)nc(N4CCOCC4)n3)cccc2c1C` [Compound 41, 2-Morpholin-4-yl-6-(2-morpholin-4-yl-ethoxy)-pyrimidine-4-carboxylic acid (2,3-dimethyl-1H-indol-7-yl)-amide], the IC50 is at least 1 µM. As for `CN(CCO)c1cc(NC(=O)Nc2ccc3[nH]c4c(c3c2)CCCC4)nc(N2CCOCC2)n1` [Compound 326, 1-{6-[(2-Hydroxy-ethyl)-methyl-amino]-2-morpholin-4-yl-pyrimidin-4-yl}-3-(6,7,8,9-tetrahydro-5H-carbazol-3-yl)-urea], the 50% inhibitory concentration (IC50) was below 1 µM. In the case of `Cc1[nH]c2ccc(NCc3cc(OCCc4ccccn4)nc(N4CCOCC4)n3)cc2c1C` [Compound 84, (2,3-Dimethyl-1H-indol-5-yl)-[2-morpholin-4-yl-6-(2-pyridin-2-yl-ethoxy)-pyrimidin-4-ylmethyl]-amine], the IC50 is below 1 µM.

In the case of `COc1cccc(NC(=O)c2cc(OCCN3CCOCC3)nc(N3CCOCC3)n2)c1` [Compound 279, 2-Morpholin-4-yl-6-(2-morpholin-4-yl-ethoxy)-pyrimidine-4-carboxylic acid (3-methoxy-phenyl)-amide], the concentration for half-maximal inhibition (IC50) was at least 1 µM. On to `NC(=O)c1ccc(NC(=O)c2cc(OCCN3CCOCC3)nc(N3CCOCC3)n2)nc1` [Compound 150, 2-Morpholin-4-yl-6-(2-morpholin-4-yl-ethoxy)-pyrimidine-4-carboxylic acid (5-carbamoyl-pyridin-2-yl)-amide], for which the IC50 is below 1 µM. Take `O=C(Nc1ccc2c(c1)CCC2)c1cc(OCCN2CCOCC2)nc(N2CCOCC2)n1` [Compound 40, 2-Morpholin-4-yl-6-(2-morpholin-4-yl-ethoxy)-pyrimidine-4-carboxylic acid indan-5-ylamide]: the concentration for half-maximal inhibition (IC50) is at least 1 µM. As for `CC(=O)N1CCN(C(=O)CNc2cc(C(=O)Nc3ccc4[nH]c(C)c(C)c4c3)nc(N3CCOCC3)n2)CC1` [Compound 102, 6-[2-(4-Acetyl-piperazin-1-yl)-2-oxo-ethylamino]-2-morpholin-4-yl-pyrimidine-4-carboxylic acid (2,3-dimethyl-1H-indol-5-yl)-amide], the IC50 was below 1 µM. As to `CCN(CC)c1cccc(NC(=O)c2cc(OCCN3CCOCC3)nc(N3CCOCC3)n2)c1` [Compound 300, 2-Morpholin-4-yl-6-(2-morpholin-4-yl-ethoxy)-pyrimidine-4-carboxylic acid (3-diethylamino-phenyl)-amide], the IC50 is at least 1 µM. As for `COC(=O)NCCOc1cc(C(=O)Nc2ccc3[nH]c(C)c(C)c3c2)nc(N2CCOCC2)n1` [Compound 294, {2-[6-(2,3-Dimethyl-1H-indol-5-ylcarbamoyl)-2-morpholin-4-yl-pyrimidin-4-yloxy]-ethyl}-carbamic acid methyl ester], the IC50 was below 1 µM.

For `CCNC(=O)CNc1cc(C(=O)Nc2ccc3[nH]c(C)c(C)c3c2)nc(N2CCOCC2)n1` [Compound 105, 6-(Ethylcarbamoylmethyl-amino)-2-morpholin-4-yl-pyrimidine-4-carboxylic acid (2,3-dimethyl-1H-indol-5-yl)-amide], the IC50 was below 1 µM. For the compound `CC1CCc2ccc(NC(=O)c3cc(OCCN4CCOCC4)nc(N4CCOCC4)n3)cc2N1` (stereo not drawn) [Compound 299, 2-Morpholin-4-yl-6-(2-morpholin-4-yl-ethoxy)-pyrimidine-4-carboxylic acid (2-methyl-1,2,3,4-tetrahydro-quinolin-7-yl)-amide], the IC50 was at least 1 µM. Take `O=C(Nc1ccc2ccccc2c1)Nc1cc(N2CCOCC2)nc(OCCN2CCOCC2)n1` [Compound 124, 1-[6-Morpholin-4-yl-2-(2-morpholin-4-yl-ethoxy)-pyrimidin-4-yl]-3-naphthalen-2-yl-urea]: the IC50 was at least 1 µM. As for `COCCN(C)c1cc(N2CCOCC2)cc(C(=O)Nc2ccc3[nH]c(C)c(C)c3c2)n1` [Compound 156, 6-[(2-Methoxy-ethyl)-methyl-amino]-4-morpholin-4-yl-pyridine-2-carboxylic acid (2,3-dimethyl-1H-indol-5-yl)-amide], the figure is below 1 µM; as for `CCN(CC)Cc1cc(NC(=O)c2cc(N(C)CCOC)nc(N3CCOCC3)n2)ccc1O` [Compound 164, 6-[(2-Methoxy-ethyl)-methyl-amino]-2-morpholin-4-yl-pyrimidine-4-carboxylic acid (3-diethylaminomethyl-4-hydroxy-phenyl)-amide], at least 1 µM. In the case of `Nc1cccc(NC(=O)c2cc(OCCN3CCOCC3)nc(N3CCOCC3)n2)c1` [Compound 277, 2-Morpholin-4-yl-6-(2-morpholin-4-yl-ethoxy)-pyrimidine-4-carboxylic acid (3-amino-phenyl)-amide] it was below 1 µM; in that of `CNCCOc1cc(NC(=O)Nc2cccc(C)c2)nc(N2CCOCC2)n1` [Compound 10, 1-[6-(2-Methylamino-ethoxy)-2-morpholin-4-yl-pyrimidin-4-yl]-3-m-tolyl-urea], below 1 µM. Regarding `CC(=O)N1CCN(c2cc(C(=O)Nc3ccc4[nH]c(C)c(C)c4c3)nc(N3CCOCC3)c2)CC1` [Compound 169, 4-(4-Acetyl-piperazin-1-yl)-6-morpholin-4-yl-pyridine-2-carboxylic acid (2,3-dimethyl-1H-indol-5-yl)-amide], the IC50 is below 1 µM. Take `Cc1ccc(NNC(=O)c2cc(N3CCOCC3)nc(OCCN3CCOCC3)n2)cc1C` [Compound 81, 6-Morpholin-4-yl-2-(2-morpholin-4-yl-ethoxy)-pyrimidine-4-carboxylic acid N′-(3,4-dimethyl-phenyl)-hydrazide]: the 50% inhibitory concentration (IC50) is below 1 µM. With `O=C(Nc1cc(OCCN2CCOCC2)nc(N2CCOCC2)n1)Nc1cccc2ncccc12` [Compound 140, 1-[2-Morpholin-4-yl-6-(2-morpholin-4-yl-ethoxy)-pyrimidin-4-yl]-3-quinolin-5-yl-urea], the 50% inhibitory concentration (IC50) is at least 1 µM. As for `O=C(Nc1cccc(C(F)(F)F)c1)Nc1cc(N2CCOCC2)nc(OCCN2CCOCC2)n1` [Compound 121, 1-[6-Morpholin-4-yl-2-(2-morpholin-4-yl-ethoxy)-pyrimidin-4-yl]-3-(3-trifluoromethyl-phenyl)-urea], the concentration for half-maximal inhibition (IC50) was below 1 µM.
